Results as given in ChEMBL document CHEMBL1201862, “PubChem BioAssay data set” (2004).
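48-hour exposure; five concentrations; linearly interpolated endpoints. GI50 = concentration required for 50% inhibition of growth.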 Calls of active or inactive are those of the source. No stated cut-off is given here; in the data, active = GI50 up to about 1.1 µM and inactive = higher.

Columns and labels:
Assay in all cases: NCI-60 cell line screen, 48 h
[1] = test system: 786-0
[2] = test system: BT-549
[3] = test system: CAKI-1
[4] = test system: EKVX
[5] = test system: IGROV-1
[6] = test system: M14
[7] = test system: MOLT-4
[8] = test system: NCI-H460
[9] = test system: OVCAR-3
[10] = test system: RPMI-8226
[11] = test system: SF-295
[12] = test system: SK-MEL-2
[13] = test system: SK-MEL-5
[14] = test system: SK-OV-3
[15] = test system: SNB-75
[16] = test system: TK-10
[17] = test system: UACC-257
[18] = test system: Malme-3M
[19] = test system: RXF 393

Measured: GI50

Cc1coc2c1CC1OC1(C)CCC1OC1(C)C2 (configuration not stated)
inactive: [1] > 100 µM | [2] > 100 µM | [3] > 100 µM | [4] > 100 µM | [5] > 100 µM | [6] > 100 µM | [7] > 100 µM | [8] > 100 µM | [9] > 100 µM | [10] > 100 µM | [11] > 100 µM | [12] > 100 µM | [13] > 100 µM | [14] > 100 µM | [15] > 100 µM | [16] > 100 µM | [17] > 100 µM

C=C1C(=O)OC2C1CCC(C)C1(O)C=CC(=O)C21C (configuration not stated)
inactive: [1] 6.11 µM | [4] > 10 µM | [5] > 10 µM | [7] 3.1 µM | [18] > 10 µM | [8] > 10 µM | [9] 4.9 µM | [10] 5.43 µM | [19] 9.31 µM | [11] > 10 µM | [12] > 10 µM | [13] > 10 µM | [14] > 10 µM | [15] 6.65 µM | [16] 6.75 µM

ClC1=C(Cl)C(Cl)(Cl)c2c3c(c4c(c21)C(Cl)(Cl)C(Cl)=C4Cl)C(Cl)(Cl)C(Cl)=C3Cl
inactive: [1] > 100 µM | [4] > 100 µM | [5] > 100 µM | [6] > 100 µM | [7] > 100 µM | [18] > 100 µM | [8] > 100 µM | [9] > 100 µM | [10] > 100 µM | [11] > 100 µM | [13] > 100 µM | [14] > 100 µM | [17] > 100 µM

O=C1c2ccccc2-c2c1c(-c1ccc([N+](=O)[O-])cc1)nc1ccc3ccccc3c21
inactive: [1] > 100 µM | [2] > 100 µM | [3] > 100 µM | [4] > 100 µM | [6] > 100 µM | [7] > 100 µM | [18] > 100 µM | [8] > 100 µM | [9] > 100 µM | [10] > 100 µM | [11] > 100 µM | [12] > 100 µM | [14] > 100 µM | [15] > 100 µM | [17] > 100 µM

COC(=O)C1=C(SC)SC2(C(=O)OC)C3C=C(C)C4C(N13)C42C(=O)OC (configuration not stated)
inactive: [1] > 100 µM | [3] > 100 µM | [4] > 100 µM | [5] > 100 µM | [6] > 100 µM | [7] > 100 µM | [18] > 100 µM | [8] > 100 µM | [9] > 100 µM | [10] > 100 µM | [19] > 100 µM | [11] > 100 µM | [12] > 100 µM | [13] 83.6 µM | [14] > 100 µM | [15] > 100 µM | [16] > 100 µM | [17] > 100 µM

COC(=O)[C@@H]1CCCN1CCN1CCC[C@H]1C(=O)OC
inactive: [1] > 100 µM | [3] > 100 µM | [6] > 100 µM | [7] > 100 µM | [18] > 100 µM | [8] > 100 µM | [9] > 100 µM | [10] > 100 µM | [19] > 100 µM | [11] > 100 µM | [12] > 100 µM | [13] > 100 µM | [14] > 100 µM | [16] > 100 µM

COc1cc(/C=C2/C(=O)N(C(=O)OCc3ccccc3)C(Cc3cc(OC)c(OC)c(C)c3OC)C(=O)N2Cc2ccccc2)c(OC)c(C)c1OC (configuration not stated)
inactive: [1] > 100 µM | [3] > 100 µM | [4] > 100 µM | [5] > 100 µM | [6] > 100 µM | [7] 8.09 µM | [18] 76.4 µM | [8] 3.52 µM | [9] 48.8 µM | [10] 20.9 µM | [19] > 100 µM | [11] > 100 µM | [12] 87.3 µM | [13] 19.4 µM | [14] > 100 µM | [15] > 100 µM | [16] > 100 µM | [17] 9.48 µM

C#CCn1c2c(c3ccccc3c1=O)C(=O)c1ccccc1-2
inactive: [1] 14 µM | [2] 22.1 µM | [3] 12 µM | [4] 16.3 µM | [5] 15.7 µM | [6] 42.8 µM | [7] 2.83 µM | [18] 25.5 µM | [9] 14.7 µM | [10] 13 µM | [11] 20.2 µM | [12] 29.9 µM | [13] 2.37 µM | [14] 27.4 µM | [15] 13.4 µM | [16] 19.5 µM | [17] 32.3 µM

O=C(CCCN1CCc2[nH]c3cc(F)ccc3c2C1)c1ccc(F)cc1
inactive: [1] 13.5 µM | [3] > 100 µM | [4] 14.8 µM | [5] 16.4 µM | [6] 9.82 µM | [7] 13 µM | [18] 12.6 µM | [8] 10.9 µM | [9] 14.2 µM | [10] 10 µM | [19] 14.4 µM | [11] 17.4 µM | [12] 18 µM | [13] 17.1 µM | [15] 11 µM | [16] 12.4 µM | [17] 15.4 µM

CN(C)c1ccc(N=O)c(O)c1.CN(C)c1ccc(N=O)c(O)c1.[SiH4]
inactive: [1] 20.8 µM | [3] 8.55 µM | [4] 15.3 µM | [5] 20.9 µM | [6] 11.7 µM | [7] 11.5 µM | [18] 14.1 µM | [9] 3.71 µM | [10] 31.6 µM | [11] 14.3 µM | [13] 11.1 µM | [14] 20.7 µM | [15] 12.7 µM | [16] 14.1 µM | [17] 14 µM

O=C1/C(=C/c2ccc(OC(=O)c3ccccc3)cc2)CCC/C1=C\c1ccc(OC(=O)c2ccccc2)cc1
inactive: [1] > 100 µM | [2] > 100 µM | [3] > 100 µM | [4] > 100 µM | [5] > 100 µM | [6] > 100 µM | [7] > 100 µM | [8] > 100 µM | [9] > 100 µM | [10] > 100 µM | [11] > 100 µM | [12] > 100 µM | [13] > 100 µM | [15] 93.3 µM | [16] > 100 µM | [17] > 100 µM

C[C@@]1(OC(=O)c2cc([N+](=O)[O-])cc([N+](=O)[O-])c2)C[C@@H]2CCCC[C@@H]21
inactive: [1] > 100 µM | [2] > 100 µM | [3] > 100 µM | [4] > 100 µM | [5] > 100 µM | [6] > 100 µM | [7] > 100 µM | [18] 58.3 µM | [8] > 100 µM | [10] 31.6 µM | [11] 66.4 µM | [12] > 100 µM | [13] 83.8 µM | [14] > 100 µM | [15] 48.2 µM | [16] > 100 µM | [17] > 100 µM
